pIC50: −log10 of the molar value. Read-outs that look alike come from different tables or passages of the source.
Target: CYP2D6 (Homo sapiens, UniProt P10635)
Assay: In vitro inhibition of human cytochrome P450 enzymes (fluorometric, 3-cyano-7-ethoxycoumarin substrate)
Description: In vitro Inhibition of Human Cytochrome P450 Enzymes
Solution A: NADPH-Regenerating System
To a glass tube on ice were added sequentially: 2% aqueous solution of sodium bicarbonate (10 mL) in NADP^+ (17 mg), glucose-6-phosphate (78 mg) and glucose-6-phosphate dehydrogenase (60 units).
To a glass tube on ice were added sequentially: 0.5 M KH2PO4 (pH 7.4, 2.4 mL), water (9 mL), CYP2D6 (480 μL of 1 picomol/microliter), and 3-cyano-7-ethoxycoumarin (5 mM in 2% acetonitrile-water, 120 microliter).
Solution A was transferred to a 96-well black plate (80 microliter per well), followed by various concentrations of a solution of N-methyl-1-[3,4-methylenedioxyphenyl]-2-aminopropane in 20% acetonitrile-water (20 microliter per well). The reaction was initiated by adding 100 microliter of solution B to each well of the 96-well plate. The plate was incubated for 30 minutes at 37° C. in the dark. The reaction was stopped by adding 75 microliter of stop buffer (4:1 acetonitrile-0.5 M Tris base) to each well, and the end point was measured in a fluorometer plate reader at λex=409 nm and λem=460 nm.

Sequence of CYP2D6 (P10635 whole entry): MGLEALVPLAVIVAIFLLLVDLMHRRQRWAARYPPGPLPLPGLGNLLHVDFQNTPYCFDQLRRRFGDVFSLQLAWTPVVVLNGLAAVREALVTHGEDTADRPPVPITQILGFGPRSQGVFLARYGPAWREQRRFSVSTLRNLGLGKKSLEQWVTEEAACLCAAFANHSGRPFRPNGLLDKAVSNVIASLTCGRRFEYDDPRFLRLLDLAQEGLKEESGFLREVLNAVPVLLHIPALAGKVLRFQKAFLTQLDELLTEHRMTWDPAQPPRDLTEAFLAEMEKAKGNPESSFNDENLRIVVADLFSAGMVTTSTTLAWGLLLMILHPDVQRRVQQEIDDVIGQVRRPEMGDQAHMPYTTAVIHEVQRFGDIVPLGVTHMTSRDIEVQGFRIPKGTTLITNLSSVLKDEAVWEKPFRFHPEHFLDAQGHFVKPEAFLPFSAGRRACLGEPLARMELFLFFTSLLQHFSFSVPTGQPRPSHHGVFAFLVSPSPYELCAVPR

SMILES: N[C@@H]1C[C@H]1c1ccccc1 (racemic) [Tranylcypromine, reference compound]
- pIC50 (read-out: IC50 (inhibition concentration of CYP2D6), CYP2D6, 3-cyano-7-ethoxycoumarin substrate, 30 minutes at 37° C., fluorescence λex=409 nm, λem=460 nm): 5.62

SMILES: [2H]C1([2H])Oc2ccc(CC(C)NC)cc2O1 (single isomer, unassigned) [example 5, d2-N-methyl-1-(3,4-methylenedioxyphenyl)-2-aminopropane]
- pIC50: 5.10

SMILES: [2H]C([2H])([2H])NC(C)Cc1ccc2c(c1)OC([2H])([2H])O2 (single isomer, unassigned) [example 6, d5-N-methyl-1-(3,4-methylenedioxyphenyl)-2-aminopropane]
- pIC50: 5.10

SMILES: [2H]C(c1ccc2c(c1)OC([2H])([2H])O2)C([2H])(C)NC([2H])([2H])[2H] (single isomer, unassigned) [example 9, d7-N-methyl-1-(3,4-methylenedioxyphenyl)-2-aminopropane]
- pIC50: 4.52

SMILES: CNC(C)Cc1ccc2c(c1)OCO2 (centres unmarked) [N-methyl-1-[3,4-methylenedioxyphenyl]-2-aminopropane, reference compound]
- pIC50: 5.52
